Data from patent US20050124607A1, “5-Substituted quinazolinone compounds useful as alpha 1A/B adrenergic receptor antagonists” (priority 2003, published 2005).
Counter-ions that a name gives are not always drawn.

melting point [°C]	Compound
218.5 to 221	CCOc1c(OC)c(OC)cc2[nH]c(N3CCc4cc(OC)c(OC)cc4C3)nc(=O)c12 (as salt: HCl) [Example 109, 2-(6,7-Dimethoxy-3,4-di-hydro-1H-isoquinolin-2-yl)-5-eth-oxy-6,7-di-methoxy-1H-quinazolin-4-one]
223.9 to 225.9	COc1cc2[nH]c(N3CCc4c(cccc4NC(=N)c4ccco4)C3)nc(=O)c2c(OC)c1OC [Example 117, N-[2-(5,6,7-Trimethoxy-4-oxo-1,4-di-hydro-quina-zolin-2-yl)-1,2,3,4-tetra-hydro-isoquinolin-5-yl]-furan-2-car-boxamidine]
178.1 to 180.9	CNCc1ccc2c(c1)CN(c1nc(=O)c3c(OC)c(OC)c(OC)cc3[nH]1)CC2 [Example 4, 5,6,7-Trimethoxy-2-(7-meth-ylaminomethyl-3,4-di-hydro-1H-isoquino-lin-2-yl)-1H-quina-zolin-4-one]
255.4 to 259.9	COc1cc2c(cc1OC)CN(c1nc(=O)c3c(Cl)c(OC)c(OC)cc3[nH]1)CC2 [Example 134, 5-Chloro-2-(6,7-di-methoxy-3,4-dihydro-1H-iso-quinolin-2-yl)-6,7-di-methoxy-1H-quinazolin-4-one]
215 to 217.5	COc1cc2[nH]c(N3CCc4c(cccc4N=C4N(C)CCN4C)C3)nc(=O)c2c(OC)c1OC
241.9 to 245.5	CNCc1cccc2c1CCN(c1nc(=O)c3c(C)c(OC)c(OC)cc3[nH]1)C2 [Example 6, 6,7-Dimethoxy-5-meth-yl-2-(5-methyl-aminomethyl-3,4-di-hydro-1H-isoquinolin-2-yl)-1H-quin-azolin-4-one]
289 to 291	COc1cc2[nH]c(N3Cc4ccc(Cl)cc4C3)nc(=O)c2c(OC)c1OC.Cl
224 to 229	COc1cc2c(cc1OC)CN(c1nc(=O)c3c(OCCO)c(OC)c(OC)cc3[nH]1)CC2 [Example 111, 2-(6,7-Dimethoxy-3,4-di-hydro-1H-isoquinolin-2-yl)-5-(2-hy-droxy-ethoxy)-6,7-di-methoxy-1H-quinazolin-4-one]
115.8 to 120.1	COc1cc2[nH]c(N3CCc4ccc(/N=C(\C)N(C)C)cc4C3)nc(=O)c2c(OC)c1OC [Example 103, N,N-Dimethyl-N′-[2-(5,6,7-tri-methoxy-4-oxo-1,4-di-hydro-quinazolin-2-yl)-1,2,3,4-tetra-hydro-isoquinolin-7-yl]-acetamidine]
197 to 201.9	COc1cc2c(cc1OC)CN(c1nc(=O)c3c(OCCOCc4ccccc4)c(OC)c(OC)cc3[nH]1)CC2 [Example 112, 5-(2-Benzyloxy-ethoxy)-2-(6,7-di-methoxy-3,4-di-hydro-1H-isoquinolin-2-yl)-6,7-di-methoxy-1H-quinazolin-4-one]
161.4 to 163.9	CCN(C)Cc1ccc2c(c1)CN(c1nc(=O)c3c(OC)c(OC)c(OC)cc3[nH]1)CC2 [Example 1, 2-{7-[(Ethyl-methyl-ami-no)-methyl]-3,4-di-hydro-1H-isoquinolin-2-yl}-5,6,7-tri-methoxy-1H-quina-zolin-4-one]
238.7 to 241.9	COc1cc2c(cc1OC)CN(c1nc(=O)c3c(Oc4ccccc4)c(OC)c(OC)cc3[nH]1)CC2 [Example 113, 2-(6,7-Dimethoxy-3,4-di-hydro-1H-isoquinolin-2-yl)-6,7-di-methoxy-5-phe-noxy-1H-quinazolin-4-one]

The next lines start with the compound.

Compound	melting point [°C]
COc1cc2c(cc1OC)CN(c1nc(=O)c3c(-c4ccc(F)cc4)c(OC)c(OC)cc3[nH]1)CC2 [Example 120, 2-(6,7-Dimethoxy-3,4-di-hydro-1H-isoquino-lin-2-yl)-5-(4-fluoro-phe-nyl)-6,7-dimethoxy-1H-quina-zolin-4-one]	220 to 225
COC[C@H]1CCCN1CCC1CCN(c2nc(=O)c3c(C)c(OC)c(OC)cc3[nH]2)CC1 [Example 57, 6,7-Dimethoxy-2-{4-[2-((R)-2-meth-oxymethyl-pyr-rolidin-1-yl)-ethyl]-pipe-ridin-1-yl}-5-meth-yl-1H-quinazolin-4-one]	219 to 221.9
COc1cc2[nH]c(N3CCCN(C(=O)N4CCOCC4)CC3)nc(=O)c2c(C)c1OC (as salt: HCl) [Example 137, 6,7-Dimethoxy-5-meth-yl-2-[4-(morpho-line-4-carbo-nyl)-[1,4]diazepan-1-yl]-1H-quina-zolin-4-one]	236.6 to 237.7
COc1cc2[nH]c(N3CCN(C(=O)CCC(C)C)CC3)nc(=O)c2c(OC)c1OC.Cl	198 to 201
COC[C@@H]1CCCN1CCC1CCN(c2nc(=O)c3c(OC)c(OC)c(OC)cc3[nH]2)CC1 [Example 69, 5,6,7-Trimeth-oxy-2-{4-[2-((S)-2-meth-oxymethyl-pyr-rolidin-1-yl)-ethyl]-pipe-ridin-1-yl}-1H-quina-zolin-4-one]	78.8 to 91.6
COc1cc2[nH]c(N3CCc4c(cccc4/N=C(/C)N(C)C)C3)nc(=O)c2c(C)c1OC [Example F-1, N′-[2-(6,7-Dimethoxy-5-methyl-4-oxo-1,4-dihydro-quinazolin-2-yl)-1,2,3,4-tetrahydro-isoquinolin-5-yl]-N,N-dimethyl-acetamidine]	270.9 to 273.5
COc1cc2[nH]c(N3CCc4c(cccc4NC(=N)C4CCC4)C3)nc(=O)c2c(C)c1OC [Example 123, N-[2-(6,7-Dimethoxy-5-meth-yl-4-oxo-1,4-di-hydro-quinazolin-2-yl)-1,2,3,4-tetra-hydro-isoquinolin-5-yl]-cyclo-butanecarboxamidine]	252.1 to 256.1
COc1cc2[nH]c(N3CCN(c4nccn4C)CC3)nc(=O)c2c(OC)c1OC [Example 28, 5,6,7-Trimethoxy-2-[4-(1-meth-yl-1H-imidazol-2-yl)-pipe-razin-1-yl]-1H-quina-zolin-4-one]	227 to 229
COC[C@H]1CCCN1CCC1CCN(c2nc(=O)c3c(OC)c(OC)c(OC)cc3[nH]2)CC1 [Example 70, 5,6,7-Trimeth-oxy-2-{4-[2-((R)-2-meth-oxymethyl-pyr-rolidin-1-yl)-ethyl]-pipe-ridin-1-yl}-1H-quina-zolin-4-one]	65 to 79.1
COc1cc2[nH]c(N3CCc4c(cccc4C4=NCCN4C)C3)nc(=O)c2c(C)c1OC	246 to 250
COc1cc2[nH]c(N3CCC(c4cccc(/N=C(\C)N(C)C)c4)C3)nc(=O)c2c(C)c1OC (stereo not drawn) [Example 142, N′-{3-[1-(6,7-Di-methoxy-5-methyl-4-oxo-1,4-di-hydro-quina-zolin-2-yl)-pyr-rolidin-3-yl]-phenyl}-N,N-di-methyl-acetamidine]	152.2 to 154.4
COc1cc2[nH]c(N3CCN(c4ccccn4)CC3)nc(=O)c2c(C)c1OC (as salt: HCl) [Example 40, 6,7-Dimethoxy-5-meth-yl-2-(4-pyridin-2-yl-pipe-razin-1-yl)-1H-quina-zolin-4-one]	286.6 to 293.1
COc1cc2[nH]c(N3CCC(Cc4ccccc4)CC3)nc(=O)c2c(OC)c1OC [Example 63, 2-(4-Benzyl-piperidin-1-yl)-5,6,7-tri-methoxy-1H-quina-zolin-4-one]	212 to 215
CCCC(=N)Nc1cccc2c1CCN(c1nc(=O)c3c(C)c(OC)c(OC)cc3[nH]1)C2 [Example 125, N-[2-(6,7-Dimethoxy-5-meth-yl-4-oxo-1,4-di-hydro-quinazolin-2-yl)-1,2,3,4-tetra-hydro-isoquinolin-5-yl]-butyramidine]	254.3 to 257.1
COc1cc2[nH]c(N3CCc4c(ncnc4N4CCOCC4)C3)nc(=O)c2c(OC)c1OC (as salt: HCl) [Example 135, 5,6,7-Trimethoxy-2-(4-morpho-lin-4-yl-5,8-di-hydro-6H-pyrido[3,4-d]py-rimidin-7-yl)-1H-quina-zolin-4-one]	190 to 192
COc1cc2[nH]c(N3CCN(c4cc(C)ccn4)CC3)nc(=O)c2c(C)c1OC (as salt: HCl) [Example 43, 6,7-Dimethoxy-5-meth-yl-2-[4-(4-methyl-py-ridin-2-yl)-piperazin-1-yl]-1H-quina-zolin-4-one]	277.7 to 280
COc1cc2[nH]c(N3CCN(c4cccc(C)n4)CC3)nc(=O)c2c(C)c1OC [Example 42, 6,7-Dimethoxy-5-meth-yl-2-[4-(6-methyl-py-ridin-2-yl)-piperazin-1-yl]-1H-quina-zolin-4-one]	284.5 to 285.5
COc1cc2[nH]c(N3CCC(CCn4ccnc4N)CC3)nc(=O)c2c(C)c1OC	130.9 to 133.3
COc1cc2[nH]c(N3CCCC3c3cccc(N4CCN=C4C)c3)nc(=O)c2c(OC)c1OC (stereo not drawn) [Example 138, 5,6,7-Trimethoxy-2-{2-[3-(2-meth-yl-4,5-di-hydro-imidazol-1-yl)-phe-nyl]-pyrrolidin-1-yl}-1H-quina-zolin-4-one]	205.1 to 209.1
COc1cc2[nH]c(N3CCN(C4=NCCN4c4cccc(F)c4)CC3)nc(=O)c2c(C)c1OC	257.9 to 260
CNCC(=O)N(C)Cc1cccc2c1CCN(c1nc(=O)c3c(C)c(OC)c(OC)cc3[nH]1)C2 [Example 8, N-[2-(6,7-Dimethoxy-5-meth-yl-4-oxo-1,4-di-hydro-quina-zolin-2-yl)-1,2,3,4-tetrahydro-iso-quinolin-5-ylmethyl]-N-meth-yl-2-methyl-amino-acetamide]	208.8 to 212
COc1cc2[nH]c(N3CCN(c4cccc(C)n4)CC3)nc(=O)c2c(OC)c1OC [Example 24, 5,6,7-Trimethoxy-2-[4-(6-meth-yl-pyridin-2-yl)-pipe-razin-1-yl]-1H-quina-zolin-4-one]	231.1 to 232.2
COc1cc2[nH]c(N3CCc4c(cccc4/N=C4\CCCN4C)C3)nc(=O)c2c(C(C)C)c1OC [Example 9, 5-Isopropyl-6,7-di-methoxy-2-{5-[1-meth-yl-pyrolidin-(2E)-ylidene-amino]-3,4-di-hydro-1H-iso-quinolin-2-yl}-1H-quina-zolin-4-one]	196 to 200
COc1cc2[nH]c(N3CCCC3c3cccc(NCCNC(C)=O)c3)nc(=O)c2c(OC)c1OC (stereo not drawn) [Example 139, N-(2-{3-[1-(5,6,7-Tri-methoxy-4-oxo-1,4-di-hydro-quinazolin-2-yl)-pyr-rolidin-2-yl]-phenyl-amino}-ethyl)-acetamide]	188.6 to 191
